Earlier results on one substance are cited in patent publication US20010003742A1, “Antilipemic formulation” (priority 1998, published 2001).

For the series the following is noted: gelatine itself.

In the case of gelatine, the haemostatic effect result is given as “only displays a haemostatic effect after an addition of thrombin”.
